According to patent US20060025390A1, “Treatment of hormone allergy and related symptoms and disorders” (priority 2004, published 2006):

How the values were obtained:
[1] = system: serum IgG anti-estrogen antibodies; test: ELISA binding of IgG estrogen antibodies to different hormones in solid phase; parameters: species or system human; conditions: for IgG binding (optical density): hormone in solid phase, 405 nm; for IgG % reaction: relative to estrogen = 100
Protocol: (§1) The ELISA inhibition method was used to determine specificity and cross-reactivity between different hormones and to ensure the degree of human IgG, IgM and IgE estrogen or progesterone binding to estrogen or progesterone in solid phase. […] 100 μl of sera from three different patients with high IgG, IgM or IgE antibodies against 17-α-hydroxyprogesterone was added to all wells. After shaking and incubation for 1 hr at room temperature, addition of enzyme labeled anti-human IgG, IgM or IgE, repeat of incubation, washing, and addition of substrate, color development was measured at 405 nm. Results were calculated as percentage of anti-17-α-hydroxyprogesterone binding to 17-α-hydroxyprogesterone and other hormones. Also, anti-estrogen binding to estrogen and other hormones in solid phase by progesterone in liquid phase was performed and calculated in a similar manner.
(§2) Human sera containing 17-α-hydroxyprogesterone IgG-, IgM- and IgE-binding antibodies were reacted against progesterone, estrogen, hydrocortisone and cholesterol. In comparison to 100% binding of anti-17-α-hydroxyprogesterone-binding to 17-α-hydroxyprogesterone, the IgG anti-17-α-hydroxyprogesterone-binding to progesterone, estrogen, hydrocortisone and cholesterol was 69-77%, 25-30%, 39-53%, and less than 10% respectively (Table 4). The % binding of serum IgM and IgE anti-17-α-hydroxyprogesterone to 17-1-hydroxyprogesterone, progesterone, estrogen, hydrocortisone and cholesterol was similar to the binding of IgG. This binding of anti-17-α-hydroxyprogesterone to progesterone was the highest, followed by hydrocortisone, then estrogen, to almost no binding with cholesterol. Similar to this, human sera with IgG, IgM and IgE binding antibodies against estrogen were reacted with progesterone, 17-α-hydroxyprogesterone, hydrocortisone and cholesterol, in the presence of estrogen.

[2] = system: serum IgG anti-17-α-hydroxyprogesterone antibodies; test: ELISA binding of IgG 17-α-hydroxyprogesterone antibodies to different hormones in solid phase; parameters: species or system human; conditions: for IgG binding (optical density): hormone in solid phase, 405 nm; for IgG % reaction: relative to 17-α-hydroxyprogesterone = 100
Protocol: as §1, §2

[3] = system: serum IgE anti-17-α-hydroxyprogesterone antibodies; test: ELISA binding of IgE 17-α-hydroxyprogesterone antibodies to different hormones in solid phase; parameters: species or system human; conditions: for IgE binding (optical density): hormone in solid phase, 405 nm; for IgE % reaction: relative to 17-α-hydroxyprogesterone = 100
Protocol: as §1, §2

[4] = system: patients experiencing hormone allergy symptoms; test: Clinical responses of hormone allergy symptoms to intradermal dilute progesterone (or estrogen); format: in vivo, human; conditions: 0.4 mg intradermally
Source text: Patients experiencing several hormone allergy symptoms experienced relief when administered dilute doses of progesterone either sublingually or intradermally.
The symptoms measured were irritation or pain in the neck, nose, eyes, throat, ear, skin, back, hips, upper extremities and lower extremities, headache, and shortness of breath. […]
Patients were designated as responding patients in Table 1 if they experienced any relief of the indicated symptom. Patients were also asked to estimate the amount of improvement in the symptom, an average of which is
In Table 2 the probability that positive results (i.e. patients responding to treatment) were due to random effects was calculated using standard statistical analysis of patient tests. It was assumed that if the treatment has no effect, there is a 50% chance that a patient will indicate a positive response and a 50% chance that a patient will indicate a negative response. From this assumption, coupled with the actual data, one may calculate the probability that positive responses are due to an actual effect of the treatment and not simply random effects. In general, results with a less than 1% chance of being random are considered highly significant. Results with a less than 5% chance of being random are normally conclusively labeled as nonrandom. Thus, the results observed for most of the symptoms in Table 2 are highly significant, with only the results for ear irritation and pain falling merely in the nonrandom category.
Hormone samples may be prepared in any way suitable for the intended administration route. For administration through intradermal injection, samples may be prepared as they were in the studies of Examples 2 and 3. Specifically, the progesterone was formulated from commercially available injectable progesterone. Each ml of the final formulation contained […] of progesterone and 10% benzyl alcohol as a preservative in sesame oil. 0.1 ml was administered per patient intradermally. Estrogen samples were similarly prepared.

[5] = system: serum IgE anti-estrogen antibodies; test: Competition ELISA: absorption of serum IgE anti-estrogen with specific and non-specific antigens; format: binding, human; conditions: for IgE level after absorption: absorption with 250 μg/mL, optical density 405 nm
Protocol: (§3) For this, microtiter plates were coated with hormones and blocked by the addition of 2% BSA in PBST. 100 μl of serum diluent buffer was added to all wells. […] After 60 minutes incubation 100 μl serum anti-estrogen or anti-progesterone was added to all wells. […] Results were calculated as percentage of inhibition in antigen-antibody reaction.
(§4) To examine whether antibodies to estrogen or progesterone are specific or cross-reactive, we performed competition ELISA by adding specific and non-specific antigens in liquid phase and examined prevention of serum antibody binding to the antigen in solid phase. […] For IgE anti-estrogen, this inhibition by estrogen-BSA was between 54-62%, and with progesterone-BSA, from 37-43%. […] This cross-reaction between estrogen and progesterone antibodies may be due to structural similarities between these two hormones.

[6] = system: serum IgM anti-17-α-hydroxyprogesterone antibodies; test: ELISA binding of IgM 17-α-hydroxyprogesterone antibodies to different hormones in solid phase; parameters: species or system human; conditions: for IgM binding (optical density): hormone in solid phase, 405 nm; for IgM % reaction: relative to 17-α-hydroxyprogesterone = 100
Protocol: as §1, §2

[7] = system: serum IgE anti-estrogen antibodies; test: ELISA binding of IgE estrogen antibodies to different hormones in solid phase; parameters: species or system human; conditions: for IgE binding (optical density): hormone in solid phase, 405 nm; for IgE % reaction: relative to estrogen = 100
Protocol: as §1, §2

[8] = system: serum IgG anti-estrogen antibodies; test: Competition ELISA: absorption of serum IgG anti-estrogen with specific and non-specific antigens; format: binding, human; conditions: for IgG level after absorption: absorption with 250 μg/mL, optical density 405 nm
Protocol: as §3, §4

[9] = system: serum IgM anti-estrogen antibodies; test: ELISA binding of IgM estrogen antibodies to different hormones in solid phase; parameters: species or system human; conditions: for IgM binding (optical density): hormone in solid phase, 405 nm; for IgM % reaction: relative to estrogen = 100
Protocol: as §1, §2

[10] = relative to estrogen, over three sera
[11] = antigen in liquid phase, over the three sera

estrogen
IgG anti-estrogen binding [1, 10]: 100% | IgG binding (optical density) ([1]; sample 1): 1.2 | IgG % reaction ([1]; sample 1): −100% | IgG binding (optical density) ([1]; sample 2): 1.8 | IgG % reaction ([1]; sample 2): −100% | IgG binding (optical density) ([1]; sample 3): 0.92 | IgG % reaction ([1]; sample 3): −100% | IgG anti-17-α-hydroxyprogesterone binding ([2]; in comparison to 100% binding to 17-α-hydroxyprogesterone, over three sera): 25-30% | IgG binding (optical density) ([2]; sample 1): 0.48 | IgG % reaction ([2]; sample 1): −30% | IgG binding (optical density) ([2]; sample 2): 0.24 | IgG % reaction ([2]; sample 2): −25% | IgG binding (optical density) ([2]; sample 3): 0.18 | IgE binding (optical density) ([3]; sample 1): 0.42 | IgE % reaction ([3]; sample 1): −29% | IgE binding (optical density) ([3]; sample 2): 0.75 | IgE % reaction ([3]; sample 2): −31% | IgE binding (optical density) ([3]; sample 3): 0.37 | IgE % reaction ([3]; sample 3): −25% | symptom relief in patients not relieved by progesterone treatment [4]: experience relief | inhibition of IgE anti-estrogen binding [5, 11]: did not significantly absorb | IgE level after absorption ([5]; serum sample 1, before absorption 2.15): 1.70 | IgE level after absorption ([5]; serum sample 2, before absorption 1.66): 1.30 | IgE level after absorption ([5]; serum sample 3, before absorption 1.34): 0.86 | IgM binding (optical density) ([6]; sample 1): 0.4 | IgM % reaction ([6]; sample 1): −31% | IgM binding (optical density) ([6]; sample 2): 0.41 | IgM % reaction ([6]; sample 2): −25% | IgM binding (optical density) ([6]; sample 3): 0.29 | IgM % reaction ([6]; sample 3): −32% | IgE anti-estrogen binding [7, 10]: 100% | IgE binding (optical density) ([7]; sample 1): 0.8 | IgE % reaction ([7]; sample 1): −100% | IgE binding (optical density) ([7]; sample 2): 1.5 | IgE % reaction ([7]; sample 2): −100% | IgE binding (optical density) ([7]; sample 3): 1.6 | IgE % reaction ([7]; sample 3): −100% | inhibition of anti-estrogen binding to estrogen (IgG) [8, 11]: did not significantly absorb | IgG level after absorption ([8]; serum sample 1, before absorption 1.83): 1.53 | IgG level after absorption ([8]; serum sample 2, before absorption 1.25): 0.95 | IgG level after absorption ([8]; serum sample 3, before absorption 0.76): 0.54 | IgM anti-estrogen binding [9, 10]: 100% | IgM binding (optical density) ([9]; sample 1): 0.9 | IgM % reaction ([9]; sample 1): −100% | IgM binding (optical density) ([9]; sample 2): 2.1 | IgM % reaction ([9]; sample 2): −100% | IgM binding (optical density) ([9]; sample 3): 1.3 | IgM % reaction ([9]; sample 3): −100%
